Tests used:
rice = assay: Test B flooded paddy test; format: in vivo, Oryza sativa; settings: 1000 g ai/ha, visual rating, scale 0 to 100 (0 no effect, 100 complete control), 13 to 15 days
In short: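 Plants grow to 1- to 4-leaf stage (2–18 cm) for postemergence spraying, or to 2-leaf stage for the paddy test. Formulated compound is applied. Greenhouse holding lasts 13–15 days. Response is scored visually relative to controls, 0 no effect to 100 complete control; a dash means no result.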

cocklebur = assay: Test B pre-/postemergence herbicide test; format: in vivo, Xanthium strumarium; settings: for Cocklebur plant response rating: postemergence, scale 0 (no effect) to 100 (complete control)
In short: (§1)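 Flooded paddy rice and barnyardgrass were treated at the 2-leaf stage; upland plantings received compound either on sown seed or on 1- to 4-leaf seedlings. All were kept 13–15 days in a greenhouse and scored visually, 0–100, relative to untreated plants.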

[1] = system: small flower umbrella sedge; assay: Test B flooded paddy test; format: in vivo, Cyperus difformis; settings: 1000 g ai/ha, visual rating, scale 0 to 100 (0 no effect, 100 complete control), 13 to 15 days
In short: (§2)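 After treating 2-leaf paddy plants or 2–18 cm postemergence plants (1 to 4 leaves) with formulated chemical, researchers kept them in a greenhouse for 13–15 days. Effects were judged visually versus controls: 0 indicates none, 100 total control.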

wheat = assay: Test B postemergence herbicide test; format: in vivo, Triticum aestivum; parameters: key to Wheat plant response rating: 0 = no effect, 100 = complete control; settings: postemergence, visual rating, scale 0 (no effect) to 100 (complete control)
In short: (§3)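 Visual ratings, 0 (no effect) to 100 (complete control), made versus controls after 13–15 d greenhouse. Paddy plants treated at 2-leaf stage; postemergence plants at 1- to 4-leaf stage, 2–18 cm tall.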

lambsquarters = assay: Test B pre-/postemergence herbicide test; format: in vivo, Chenopodium album; settings: for Lambsquarters plant response rating: postemergence, scale 0 (no effect) to 100 (complete control)
In short: (§4)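 Pre: seeds sown, then sprayed. Post: 1–4-leaf plants (2–18 cm) sprayed at the same time. Paddy: flooded, treated at 2-leaf stage. Formulation: non-phytotoxic solvent with surfactant. Greenhouse 13–15 days; visual 0–100 score relative to controls.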

barnyardgrass [2] = assay: Test B flooded paddy test; format: in vivo, Echinochloa crus-galli; settings: 1000 g ai/ha, visual rating, scale 0 to 100 (0 no effect, 100 complete control), 13 to 15 days
In short: as §2

wild oat = assay: Test B postemergence herbicide test; format: in vivo, Avena fatua; settings: postemergence, visual rating, scale 0 (no effect) to 100 (complete control)
In short: as §3

Surinam grass = assay: Test B pre-/postemergence herbicide test; format: in vivo, Urochloa decumbens; settings: for Surinam Grass plant response rating: postemergence, scale 0 (no effect) to 100 (complete control)
In short: as §4

morningglory = assay: Test B pre-/postemergence herbicide test; format: in vivo, Ipomoea coccinea; settings: for Morningglory plant response rating: postemergence, scale 0 (no effect) to 100 (complete control)
In short: as §1

large crabgrass = assay: Test B pre-/postemergence herbicide test; format: in vivo, Digitaria sanguinalis; settings: for Crabgrass, Large plant response rating: postemergence, scale 0 (no effect) to 100 (complete control)
In short: as §4

velvetleaf = assay: Test B pre-/postemergence herbicide test; format: in vivo, Abutilon theophrasti; settings: for Velvetleaf plant response rating: postemergence, scale 0 (no effect) to 100 (complete control)
In short: as §4

giant foxtail = assay: Test B pre-/postemergence herbicide test; format: in vivo, Setaria faberi; settings: for Foxtail, Giant plant response rating: postemergence, scale 0 (no effect) to 100 (complete control)
In short: as §4

pigweed = assay: Test B pre-/postemergence herbicide test; format: in vivo, Amaranthus retroflexus; settings: for Pigweed plant response rating: postemergence, scale 0 (no effect) to 100 (complete control)
In short: as §4

corn = assay: Test B pre-/postemergence herbicide test; format: in vivo, Zea mays; settings: for Corn plant response rating: postemergence, scale 0 (no effect) to 100 (complete control)
In short: as §4

barnyardgrass [3] = assay: Test B pre-/postemergence herbicide test; format: in vivo, Echinochloa crus-galli; settings: for Barnyardgrass plant response rating: postemergence, scale 0 (no effect) to 100 (complete control)
In short: as §1

[4] = 125 g ai/ha, 0 = no effect, 100 = complete control, preemergence
[5] = 500 g ai/ha, visual rating, 0 = no effect, 100 = complete control, preemergence

Question: Which “Rice plant response rating” value (rice) does the source give for `CCNC(=O)c1cccc(NC(=O)c2sc(C(C)(C)C)nc2CC)n1` [Compound 213] here?
Answer: The value was 40.

Question: What about the “Cocklebur plant response rating (0 to 100 scale)” value (cocklebur; [4]) of the same compound?
Answer: Its value is 0.

Question: What about the “Plant response rating, Cocklebur” value (cocklebur; [5]) of the same compound?
Answer: The value was 0.

Question: And the “Cocklebur plant response rating” value (cocklebur; 125 g ai/ha, visual rating)?
Answer: The value was 0.

Question: What about the “Cocklebur plant response rating” value (cocklebur; 500 g ai/ha, visual rating) of the same compound?
Answer: Its value is 70.

Question: What about the “Sedge, Umbrella plant response rating” value [1] of the same compound?
Answer: The value was 80.

Question: And the “Wheat plant response rating” value (wheat; 125 g ai/ha)?
Answer: The value was 0.

Question: What about the “Wheat plant response rating” value (wheat; 500 g ai/ha) of the same compound?
Answer: The value was 30.

Question: What about the “Lambsquarters plant response rating (0 to 100 scale)” value (lambsquarters; [4]) of the same compound?
Answer: Its value is 30.

Question: What about the “Plant response rating, Lambsquarters” value (lambsquarters; [5]) of the same compound?
Answer: The value was 100.

Question: What about the “Lambsquarters plant response rating” value (lambsquarters; 125 g ai/ha, visual rating) of the same compound?
Answer: Its value is 0.

Question: What about the “Lambsquarters plant response rating” value (lambsquarters; 500 g ai/ha, visual rating) of the same compound?
Answer: Its value is 40.

Question: And the “Barnyardgrass plant response rating” value (barnyardgrass [2])?
Answer: Its value is 60.

Question: And the “Oat, Wild plant response rating” value (wild oat; 125 g ai/ha)?
Answer: Its value is 10.

Question: And the “Oat, Wild plant response rating” value (wild oat; 500 g ai/ha)?
Answer: The value was 20.

Question: What about the “Surinam Grass plant response rating (0 to 100 scale)” value (Surinam grass; [4]) of the same compound?
Answer: The value was 0.

Question: What about the “Plant response rating, Surinam Grass” value (Surinam grass; [5]) of the same compound?
Answer: The value was 40.

Question: What about the “Surinam Grass plant response rating” value (Surinam grass; 125 g ai/ha, visual rating) of the same compound?
Answer: The value was 10.

Question: What about the “Surinam Grass plant response rating” value (Surinam grass; 500 g ai/ha, visual rating) of the same compound?
Answer: The value was 20.

Question: And the “Morningglory plant response rating (0 to 100 scale)” value (morningglory; [4])?
Answer: Its value is 0.

Question: And the “Plant response rating, Morningglory” value (morningglory; [5])?
Answer: Its value is 20.

Question: And the “Morningglory plant response rating” value (morningglory; 125 g ai/ha, visual rating)?
Answer: Its value is 10.

Question: What about the “Morningglory plant response rating” value (morningglory; 500 g ai/ha, visual rating) of the same compound?
Answer: Its value is 30.

Question: And the “Crabgrass, Large plant response rating (0 to 100 scale)” value (large crabgrass; [4])?
Answer: Its value is 10.

Question: What about the “Plant response rating, Crabgrass, Large” value (large crabgrass; [5]) of the same compound?
Answer: Its value is 70.

Question: What about the “Crabgrass, Large plant response rating” value (large crabgrass; 125 g ai/ha, visual rating) of the same compound?
Answer: Its value is 0.

Question: And the “Crabgrass, Large plant response rating” value (large crabgrass; 500 g ai/ha, visual rating)?
Answer: The value was 30.

Question: What about the “Velvetleaf plant response rating (0 to 100 scale)” value (velvetleaf; [4]) of the same compound?
Answer: The value was 0.

Question: And the “Plant response rating, Velvetleaf” value (velvetleaf; [5])?
Answer: Its value is 80.

Question: What about the “Velvetleaf plant response rating” value (velvetleaf; 125 g ai/ha, visual rating) of the same compound?
Answer: The value was 0.

Question: What about the “Velvetleaf plant response rating” value (velvetleaf; 500 g ai/ha, visual rating) of the same compound?
Answer: The value was 60.

Question: And the “Foxtail, Giant plant response rating (0 to 100 scale)” value (giant foxtail; [4])?
Answer: The value was 20.

Question: What about the “Plant response rating, Foxtail, Giant” value (giant foxtail; [5]) of the same compound?
Answer: Its value is 90.

Question: What about the “Foxtail, Giant plant response rating” value (giant foxtail; 125 g ai/ha, visual rating) of the same compound?
Answer: The value was 0.

Question: And the “Foxtail, Giant plant response rating” value (giant foxtail; 500 g ai/ha, visual rating)?
Answer: The value was 30.

Question: And the “Pigweed plant response rating (0 to 100 scale)” value (pigweed; [4])?
Answer: Its value is 30.

Question: What about the “Plant response rating, Pigweed” value (pigweed; [5]) of the same compound?
Answer: The value was 100.

Question: And the “Pigweed plant response rating” value (pigweed; 125 g ai/ha, visual rating)?
Answer: The value was 0.

Question: And the “Pigweed plant response rating” value (pigweed; 500 g ai/ha, visual rating)?
Answer: The value was 20.

Question: What about the “Corn plant response rating (0 to 100 scale)” value (corn; [4]) of the same compound?
Answer: Its value is 0.

Question: And the “Plant response rating, Corn” value (corn; [5])?
Answer: The value was 10.

Question: What about the “Corn plant response rating” value (corn; 125 g ai/ha, visual rating) of the same compound?
Answer: Its value is 0.

Question: And the “Corn plant response rating” value (corn; 500 g ai/ha, visual rating)?
Answer: Its value is 20.

Question: And the “Barnyardgrass plant response rating (0 to 100 scale)” value (barnyardgrass [3]; [4])?
Answer: The value was 10.

Question: What about the “Plant response rating, Barnyardgrass” value (barnyardgrass [3]; [5]) of the same compound?
Answer: Its value is 80.

Question: What about the “Barnyardgrass plant response rating” value (barnyardgrass [3]; 125 g ai/ha, visual rating) of the same compound?
Answer: Its value is 0.

Question: What about the “Barnyardgrass plant response rating” value (barnyardgrass [3]; 500 g ai/ha, visual rating) of the same compound?
Answer: Its value is 50.
